Measurements published in patent US5247084A, “Derivatives of p-guanidinobenzoic acid” (priority 1985, dated 1993).
Where two headings read alike, the source gives them in different places.

Molecular target: T1, elastase from human neutrophil (Homo sapiens, UniProt P08246)
T1 construct: using elastase from human neutrophil; from tissue; host or cells: human neutrophil
T1 sequence (P08246 30-247 limits assumed): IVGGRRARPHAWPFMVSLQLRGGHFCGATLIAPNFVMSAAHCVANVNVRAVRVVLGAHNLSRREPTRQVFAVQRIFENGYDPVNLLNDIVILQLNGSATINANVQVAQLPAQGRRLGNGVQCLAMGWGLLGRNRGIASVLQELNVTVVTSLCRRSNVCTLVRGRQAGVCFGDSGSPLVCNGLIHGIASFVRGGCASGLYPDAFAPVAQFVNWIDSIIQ
Assay: Inhibitory effect on elastase (spectrophotometric method, substrate Suc-Ala-Pro-Ala-pNA)
Assay type: biochemical

[1] = Y represents an oxygen atom, pH 8.0, 37° C., 30 minutes, read-out: Inhibitory Effect on Elastase, IC50
[2] = at 50 μg/ml, Y represents a sulfur atom, read-out: Elastase Inhibitory Effect, Inhibition %
[3] = Y represents a sulfur atom, pH 8.0, 37° C., 30 minutes, read-out: Elastase Inhibitory Effect, IC50

Experimental: The test was carried out by the slight modification of the method of Bieth et al [see Biochem. Med., 75, 350 (1974)] using elastase from human neutrophil.
The reaction mixture consisted of 1 mM Suc-Ala-Pro-Ala-pNA (dissolving in N-methylpyrrolidone to the concentration of 100 mM, and then adding 1/100 amount of the solution to the reaction mixture.), 0.1 M buffer solution of tris-hydrochloric acid (pH 8.0), 0.2 M sodium chloride aqueous solution, the sample solution of various concentrations and enzyme solution in a final volume of 1.0 ml was incubated at 37° C. for 30 minutes.
The reaction was stopped by the addition of 100 μl of 50% acetic acid into the reaction mixture, and then p-nitro anilide released was measured on absorbance of 405 nm.
Inhibition percentage of the test compounds was caliculated by the following equation: [formula]

| SMILES | IC50 [1] [µM] | inhibition at 100 µM (Y represents an oxygen atom) [%] | further results |
| --- | --- | --- | --- |
| COC(=O)c1cc(OC(=O)c2ccc(NC(=N)N)cc2)cc(OC(=O)c2ccc(NC(=N)N)cc2)c1 [Example 67] | 70 |  |  |
| N=C(N)Nc1ccc(SCc2cc(Cl)cc(OC(=O)c3ccc(NC(=N)N)cc3)c2)cc1 [Example 120] | 6 |  |  |
| N=C(N)Nc1ccc(C(=O)Oc2ccc(Cl)cc2)cc1 [Example 36] |  |  | inhibition at 50 µg/mL (at 50 μg/ml (footnote 2), Y represents an oxygen atom, read-out: Inhibitory Effect on Elastase, Inhibition %): 14.9% |
| CCS(=O)(=O)Nc1cc(Cl)cc(OC(=O)c2ccc(NC(=N)N)cc2)c1 [Example 106] | 15 |  |  |
| COC(=O)c1cc(O)cc(OC(=O)c2ccc(NC(=N)N)cc2)c1 [Example 111] |  | 45 |  |
| CCOC(=O)c1ccc(SC(=O)c2ccc(NC(=N)N)cc2)cc1 [Example 142] |  |  | inhibition at 50 µg/mL [2]: 69.1% |
| COc1cc(OC(=O)c2ccc(NC(=N)N)cc2)cc(OS(C)(=O)=O)c1 [Example 73] | 4.7 |  |  |
| COC(=O)c1ccc(OC(=O)c2ccc(NC(=N)N)cc2)c(Cl)c1 [Example 15] | 98 | 55.6 |  |
| CCN(CC)S(=O)(=O)c1ccc(SC(=O)c2ccc(NC(=N)N)cc2)cc1 [Example 146] |  |  | IC50 [3]: 11 µM; inhibition at 50 µg/mL [2]: 73.1% |
| N=C(N)Nc1ccc(C(=O)Oc2cccc(S(=O)(=O)N3CCOCC3)c2)cc1 [Example 100] |  | 44.2 |  |
| CN(C)C(=O)c1cccc(OC(=O)c2ccc(NC(=N)N)cc2)c1 [Example 80] |  | 30 |  |
| COc1cc(Cl)cc(OC(=O)c2ccc(NC(=N)N)cc2)c1 [Example 39] | 2.4 | 91.1 |  |
| N=C(N)Nc1ccc(C(=O)Oc2cccc(S(=O)(=O)N3CCCCC3)c2)cc1 [Example 99] |  | 41 |  |
| N=C(N)Nc1ccc(C(=O)Sc2ccc(F)cc2)cc1 [Example 131] |  |  | IC50 [3]: 21 µM; inhibition at 50 µg/mL [2]: 83% |
| N=C(N)Nc1ccc(C(=O)Oc2cc(NC(=N)N)ccc2Cl)cc1 [Example 118] | 47 |  |  |
| COc1cc(COc2ccc(S(=O)(=O)N3CCOCC3)cc2)cc(OC(=O)c2ccc(NC(=N)N)cc2)c1 [Example 152, p-guanidinobenzoic acid 3-methoxy-5-(4-morpholinosulfonyl)phenoxymethylphenylester acetate] | 7 |  |  |
| N=C(N)Nc1ccc(C(=O)Oc2cc(Cl)cc(OCc3ccccc3)c2)cc1 [Example 119] | 4.7 |  |  |
| N=C(N)Nc1ccc(OC(=O)c2ccc(NC(=N)N)cc2)cc1 [Example 117] | > 100 |  |  |
| N=C(N)Nc1ccc(C(=O)Oc2c(F)c(F)c(F)c(F)c2F)cc1 [Example 33] | 5.8 | 92.1 |  |
| N=C(N)Nc1ccc(C(=O)Oc2ccc(C(=O)c3ccccc3)c(Cl)c2Cl)cc1 [Example 57] |  | 50.5 |  |
| CNC(=O)c1cc(OC(=O)c2ccc(NC(=N)N)cc2)cc(OC(=O)c2ccc(NC(=N)N)cc2)c1 [Example 82] |  | 38 |  |
| Cc1ccccc1OC(=O)c1ccc(NC(=N)N)cc1 [Example 2] |  | 20.2 |  |
| COC(=O)C=Cc1ccc(OC(=O)c2ccc(NC(=N)N)cc2)cc1 [Example 27] |  | 31 |  |
| CCCOc1ccc(C(C)=O)c(OC(=O)c2ccc(NC(=N)N)cc2)c1 [Example 50] | 54 |  |  |
| N=C(N)Nc1ccc(C(=O)Oc2cc(C(F)(F)F)cc(C(F)(F)F)c2)cc1 [Example 47] | 3.2 |  |  |
| N=C(N)Nc1ccc(C(=O)Oc2cc(Cl)cc(C(N)=O)c2)cc1 [Example 79] | 5.2 |  |  |

| SMILES | IC50 [1] [µM] | inhibition at 100 µM (Y represents an oxygen atom) [%] | further results |
| --- | --- | --- | --- |
| COc1cc(OC)cc(OC(=O)c2ccc(NC(=N)N)cc2)c1 [Example 10] | 40 |  |  |
| N=C(N)Nc1ccc(C(=O)Oc2cc(Cl)ccc2C(=O)O)cc1 [Example 149] | 60 |  |  |
| CS(=O)(=O)Oc1cc(Cl)cc(OC(=O)c2ccc(NC(=N)N)cc2)c1 [Example 74] | 1 |  |  |
| COc1cc(OC(=O)c2ccc(NC(=N)N)cc2)ccc1Cl [Example 40] |  | 39 |  |
| CCC(C)OC(=O)c1cccc(OC(=O)c2ccc(NC(=N)N)cc2)c1Cl (centres unmarked) [Example 22] | 2.6 |  |  |
| COc1ccccc1SC(=O)c1ccc(NC(=N)N)cc1 [Example 128] |  |  | IC50 [3]: 21 µM; inhibition at 50 µg/mL [2]: 79.8% |
| Cc1cccc(OC(=O)c2ccc(NC(=N)N)cc2)c1 [Example 3] |  | 45.6 |  |
| COC(=O)Cc1cccc(OC(=O)c2ccc(NC(=N)N)cc2)c1Cl [Example 24] | 50 |  |  |
| COCc1cc(O)cc(OC(=O)c2ccc(NC(=N)N)cc2)c1 [Example 12] | > 200 | 14 |  |
| COc1ccc(SC(=O)c2ccc(NC(=N)N)cc2)cc1 [Example 130] |  |  | inhibition at 50 µg/mL [2]: 48.2% |
| Cc1cc(O)cc(OC(=O)c2ccc(NC(=N)N)cc2)c1 [Example 109] | 160 |  |  |
| Cc1cc(OC(=O)c2ccc(NC(=N)N)cc2)cc(OC(=O)c2ccc(NC(=N)N)cc2)c1 [Example 70] | 6.4 |  |  |
| COC(=O)Cc1cccc(OC(=O)c2ccc(NC(=N)N)cc2)c1 [Example 23] |  | 15.6 |  |
| CCN(CC)S(=O)(=O)c1cc(Cl)cc(OC(=O)c2ccc(NC(=N)N)cc2)c1 [Example 95] | 4.8 |  |  |
| CCNC(=O)Oc1cc(Cl)cc(OC(=O)c2ccc(NC(=N)N)cc2)c1 [Example 88] |  |  | IC50: 1.1 µM |
| N=C(N)Nc1ccc(C(=O)Sc2ccc(C(=O)O)cc2)cc1 [Example 139] |  |  | inhibition at 50 µg/mL [2]: 23.2% |
| Cc1ccccc1SC(=O)c1ccc(NC(=N)N)cc1 [Example 125] |  |  | IC50 [3]: 20 µM; inhibition at 50 µg/mL [2]: 76.3% |
| N=C(N)Nc1ccc(C(=O)Oc2cccc(F)c2)cc1 [Example 29] | 21 | 81.1 |  |
| N=C(N)Nc1ccc(C(=O)Sc2ccc([N+](=O)[O-])cc2)cc1 [Example 145] |  |  | IC50 [3]: 18 µM; inhibition at 50 µg/mL [2]: 64.2% |
| N=C(N)Nc1ccc(C(=O)Oc2cc(Cl)cc(OC(=O)c3ccc(NC(=N)N)cc3)c2)cc1 [Example 68] | 0.6 |  |  |
| CCN(CC)S(=O)(=O)c1ccc(OC(=O)c2ccc(NC(=N)N)cc2)c(F)c1 [Example 96] | 61 |  |  |
| COC(=O)c1ccccc1SC(=O)c1ccc(NC(=N)N)cc1 [Example 141] |  |  | IC50 [3]: 2.6 µM; inhibition at 50 µg/mL [2]: 96.3% |
| CC(C)OC(=O)c1ccc(Cl)cc1OC(=O)c1ccc(NC(=N)N)cc1 [Example 20] | 14 |  |  |
| N=C(N)Nc1ccc(C(=O)Oc2cccc(OC(=O)c3ccc(NC(=N)N)cc3)c2)cc1 [Example 64] | 15 |  |  |
| N=C(N)Nc1ccc(C(=O)Sc2ccccc2Br)cc1 [Example 138] |  |  | IC50 [3]: 1.6 µM; inhibition at 50 µg/mL [2]: 83.1% |
| CC(C)S(=O)(=O)Oc1cc(Cl)cc(OC(=O)c2ccc(NC(=N)N)cc2)c1 [Example 76] | 1.1 |  |  |

Now from value to compound, other results behind:

| IC50 [1] [µM] | inhibition at 100 µM (Y represents an oxygen atom) [%] | SMILES | further results |
| --- | --- | --- | --- |
| 3.7 |  | N=C(N)Nc1ccc(C(=O)Oc2c(F)cccc2F)cc1 [Example 31] |  |
|  | 20 | N=C(N)Nc1ccc(C(=O)Oc2cccc(NC(=N)N)c2)cc1 [Example 116] |  |
| 100 | 50.9 | COc1cccc(OC(=O)c2ccc(NC(=N)N)cc2)c1 [Example 8] |  |
| 27 | 76.8 | N=C(N)Nc1ccc(C(=O)Oc2ccccc2Cl)cc1 [Example 34] |  |
| 1.6 |  | COc1cc(OC(=O)c2ccc(NC(=N)N)cc2)cc(OC(=O)c2ccc(NC(=N)N)cc2)c1 [Example 69] |  |
| 3 |  | CC(=O)OCc1cc(Cl)cc(OC(=O)c2ccc(NC(=N)N)cc2)c1 [Example 71] |  |
|  | 22 | CNC(=O)c1cc(O)cc(OC(=O)c2ccc(NC(=N)N)cc2)c1 [Example 114] |  |
|  | 27.8 | CC(=O)Oc1ccc(OC(=O)c2ccc(NC(=N)N)cc2)cc1 [Example 60] |  |
| 0.95 |  | CN(C)S(=O)(=O)c1ccc(NC(=O)c2cc(Cl)cc(OC(=O)c3ccc(NC(=N)N)cc3)c2)cc1 [Example 103] |  |
|  | 13.3 | COC(=O)Cc1ccc(OC(=O)c2ccc(NC(=N)N)cc2)cc1Cl [Example 26] |  |
|  | 27 | N=C(N)Nc1ccc(C(=O)Oc2cc(OC(=O)c3ccc(NC(=N)N)cc3)cc(C(=O)NCc3ccccc3)c2)cc1 [Example 85] |  |
| 5.8 | 92.2 | COC(=O)c1ccc(Cl)cc1OC(=O)c1ccc(NC(=N)N)cc1 [Example 17] |  |
| 16 | 82.1 | N=C(N)Nc1ccc(C(=O)Oc2ccccc2Br)cc1 [Example 42] |  |
|  | 40 | COC(=O)Cc1ccc(OC(=O)c2ccc(NC(=N)N)cc2)c(Cl)c1 [Example 25] |  |
| 1.8 |  | CC(=O)c1ccc(Cl)cc1OC(=O)c1ccc(NC(=N)N)cc1 [Example 51] |  |
| 13 | 71.4 | N=C(N)Nc1ccc(C(=O)Oc2cccc(C(F)(F)F)c2)cc1 [Example 46] |  |
| 120 | 60.1 | N=C(N)Nc1ccc(C(=O)Oc2ccc([N+](=O)[O-])cc2)cc1 [Example 108] |  |
| 40 |  | COc1ccc(C(C)=O)c(OC(=O)c2ccc(NC(=N)N)cc2)c1 [Example 49] |  |
| 4.5 |  | N=C(N)Nc1ccc(C(=O)Oc2cc(Cl)cc(CO)c2)cc1 [Example 150, P-guanidinobenzoic acid 3-chloro-5-hydroxymethylphenylester acetate] |  |
| 58 |  | CCN(CC)S(=O)(=O)c1ccc(OC(=O)c2ccc(NC(=N)N)cc2)cc1 [Example 93] |  |
|  | 10.7 | N=C(N)Nc1ccc(C(=O)Oc2ccc(F)cc2)cc1 [Example 30] |  |
|  | 34.9 | N=C(N)Nc1ccc(C(=O)Oc2ccc(S(=O)(=O)N3CCOCC3)cc2)cc1 [Example 101] |  |
| 1.1 |  | CCN(CC)S(=O)(=O)c1ccc(NC(=O)c2cc(Cl)cc(OC(=O)c3ccc(NC(=N)N)cc3)c2)cc1 [Example 104] |  |
| 40 | 76.3 | N=C(N)Nc1ccc(C(=O)Oc2ccccc2F)cc1 [Example 28] |  |
